Values joined by “and” are separate entries in the source; they are usually repeats but may differ in a detail not shown here. Identical values can stand only once. Each block holds one compound with its values, some of them ahead of it.
Key:
[1] = molecular target: T1, progesterone receptor (PR) (Homo sapiens, UniProt P06401); assay: T47D cell alkaline phosphatase assay; format: cell-based; settings: for inhibition at 3 µM: T47D, read-out: Alk. Phos. % inh @ 3 μM; for IC50: read-out: Alk. Phos. IC50
T1 construct: endogenous in cells; host or cells: T47D cells
T1 sequence (P06401 1-933): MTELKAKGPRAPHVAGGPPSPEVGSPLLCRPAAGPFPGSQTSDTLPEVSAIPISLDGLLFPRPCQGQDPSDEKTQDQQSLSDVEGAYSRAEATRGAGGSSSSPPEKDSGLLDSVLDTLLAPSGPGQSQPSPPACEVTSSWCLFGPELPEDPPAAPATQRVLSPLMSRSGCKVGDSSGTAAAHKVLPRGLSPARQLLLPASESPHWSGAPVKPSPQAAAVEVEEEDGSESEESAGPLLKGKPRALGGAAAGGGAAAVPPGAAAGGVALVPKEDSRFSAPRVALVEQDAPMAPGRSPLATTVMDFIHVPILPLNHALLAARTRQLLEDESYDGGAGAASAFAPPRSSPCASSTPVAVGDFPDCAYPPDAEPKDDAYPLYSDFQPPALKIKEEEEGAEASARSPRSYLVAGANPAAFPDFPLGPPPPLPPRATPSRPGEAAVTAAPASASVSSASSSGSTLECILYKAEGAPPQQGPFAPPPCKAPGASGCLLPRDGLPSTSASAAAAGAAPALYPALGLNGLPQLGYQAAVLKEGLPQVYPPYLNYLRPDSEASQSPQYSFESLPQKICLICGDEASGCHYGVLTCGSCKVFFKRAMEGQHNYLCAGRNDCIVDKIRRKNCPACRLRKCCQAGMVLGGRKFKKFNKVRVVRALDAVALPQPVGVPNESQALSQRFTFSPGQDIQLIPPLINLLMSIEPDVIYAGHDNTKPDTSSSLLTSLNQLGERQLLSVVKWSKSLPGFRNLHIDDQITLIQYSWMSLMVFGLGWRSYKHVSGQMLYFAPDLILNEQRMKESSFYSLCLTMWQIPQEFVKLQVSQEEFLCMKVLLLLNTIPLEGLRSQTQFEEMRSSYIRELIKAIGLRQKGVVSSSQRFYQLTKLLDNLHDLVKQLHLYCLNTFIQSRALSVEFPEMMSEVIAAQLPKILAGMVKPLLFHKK
Procedure: (i) Purpose: To identify progestins or antiprogestins by determining a compound's effect on alkaline phosphatase activity in T47D cells.
A. Reagents • (i) Culture Medium: • DMEM:F12 (1:1) (GIBCO, BRL) supplemented with 5% (v/v) charcoal stripped fetal bovine serum (not heat-inactivated), 100U/mL penicillin, […] streptomycin, and 2 mM the GlutaMax™ reagent (GIBCO, BRL). • (ii) Alkaline phosphatase assay buffer: • I. 0.1 M Tris-HCl, pH 9.8, containing 0.2% the Triton™ X-100 reagent; • II. 0.1 M Tris-HCl, pH 9.8 containing 4 mM p-nitrophenyl phosphate (Sigma).
B. Cell Culture and Treatment • Frozen T47D cells were thawed in a 37° C. water bath and diluted to 280,000 cells/mL in culture medium. To each well in a 96-well plate (Falcon, Becton Dickinson Labware), 180 ? L of diluted cell suspension was added. Twenty ? L of reference or test compounds diluted in the culture medium was then added to each well. […] The cells were incubated at 37° C. in a 5% CO2/humidified atmosphere for 24 hours. • Note: For high throughput screening, one concentration of each compound was tested at 0.3 mg/mL. Based on an average molecular weight of 300 g/mol for the compounds in the library, the concentration was approximately 1 mM.
C. Alkaline Phosphatase Enzyme Assay • At the end of treatment, the medium was removed from the plate. Fifty ? L of assay buffer I was added to each well. The plates were shaken in a titer plate shaker for 15 minutes. Then 150 ? L of assay buffer II was added to each well.
Square root-transformed data were used for analysis of variance and nonlinear dose response curve fitting for both agonist and antagonist modes. Huber weighting was used to downweight the effects of outliers. EC50 or IC50 values were calculated from the retransformed values. JMP software (SAS Institute, Inc.) was used for both one-way analysis of variance and non-linear dose response analyses in both single dose and dose response studies.

[2] = system: rat uterine decidualization; assay: Rat decidualization assay; format: in vivo; settings: for Estimated average EC50: s.c., average of dose-response curves, rat decidual response
Procedure: C. […] The animals are treated once daily for seven days.
Uteri are removed and trimmed of fat.
Decidual response: [(D−C)/C]×100%

[3] = system: T47D cells; assay: T47D cell proliferation assay (BrdU incorporation); format: cell-based
Procedure: (a) Objective: Determination of progestational and antiprogestational potency by using a cell proliferation assay in T47D cells. A compound's effect on DNA synthesis in T47D cells is measured.
A. Reagents • (i) Growth medium: DMEM:F12 (1:1) (GIBCO, BRL) supplemented with 10% (v/v) fetal bovine serum (not heat-inactivated), 100U/mL penicillin, […] streptomycin, and 2 mM GlutaMax™ media (GIBCO, BRL). • (ii) Treatment medium: Minimum Essential Medium (MEM) (#51200-038GIBCO, BRL) phenol red-free supplemented with 0.5% charcoal stripped fetal bovine serum, 100U/mL penicillin, […] streptomycin, and 2 mM GlutaMax™ media (GIBCO, BRL).
B. Cell Culture • Stock T47 D cells are maintained in growth medium. […]
C. Cell Proliferation Assay • At the end of BrdU labeling, the medium is removed and BrdU incorporation is measured using a cell proliferation ELISA kit (#RPN 250, Amersham Life Science) according to manufacturer's instructions. […] L of 1 M sulfuric acid is added to each well to stop color reaction and optical density is read in a plate reader at 450 nm within 5 minutes.
D. Analysis of Results • Square root-transformed data are used for analysis of variance and nonlinear dose response curve fitting for both agonist and antagonist modes. […] EC50 or IC50 values are calculated from the retransformed values. […]

SMILES: COc1ccc(-c2ccc3c(c2)C(C)(C)C/C3=N\O)cc1 [Example 35, (1E)-5-(4-methoxyphenyl)-3,3-dimethylindan-1-one oxime]
- inhibition at 3 µM [1]: 63%

SMILES: CC1(C)C/C(=N\O)c2ccc(-c3cccc(Cl)c3Cl)cc21 [Example 42, (1E)-5-(2,3-dichlorophenyl)-3,3-dimethylindan-1-one oxime]
- inhibition at 3 µM [1]: 100%

SMILES: COc1cccc(-c2ccc3c(c2)C(C)(C)C/C3=N\O)c1 [Example 38, (1E)-5-(3-methoxyphenyl)-3,3-dimethylindan-1-one oxime]
- inhibition at 3 µM [1]: 42%

SMILES: CC1(C)C/C(=N\O)c2ccc(-c3ccc(Cl)cc3)cc21 [Example 33, (1E)-5-(4-chlorophenyl)-3,3-dimethylindan-1-one oxime]
- inhibition at 3 µM [1]: 100%

SMILES: CC1(C)C/C(=N\O)c2ccc(-c3cc(Cl)cc(Cl)c3)cc21 [Example 39, (1E)-5-(3,5-dichlorophenyl)-3,3-dimethylindan-1-one oxime]
- inhibition at 3 µM [1]: 30%

SMILES: CC1(C)C/C(=N\O)c2ccc(-c3cccc(Cl)c3)cc21 [Example 36, (1E)-5-(3-chlorophenyl)-3,3-dimethylindan-1-one oxime]
- inhibition at 3 µM [1]: 70%

SMILES: CC1C/C(=N\O)c2ccc(-c3ccc(C#N)n3C)cc21 (stereo not shown) [Example 3, 5-[(1E)-1-(hydroxyimino)-3-methyl-2,3-dihydro-1H-inden-5-yl]-1-methyl-1H-pyrrole-2-carbonitrile]
- IC50 [1]: 65 nM

SMILES: Cc1cccc(-c2ccc3c(c2)C(C)(C)C/C3=N\O)c1 [Example 37, (1E)-3,3-dimethyl-5-(3-methylphenyl)indan-1-one oxime]
- inhibition at 3 µM [1]: 65%

SMILES: CC1(C)C/C(=N\O)c2ccc(-c3ccccc3Cl)cc21 [Example 40, (1E)-5-(2-chlorophenyl)-3,3-dimethylindan-1-one oxime]
- inhibition at 3 µM [1]: 62%

SMILES: Cc1ccc(-c2ccc3c(c2)C(C)(C)C/C3=N\O)cc1 [Example 34, (1E)-3,3-dimethyl-5-(4-methylphenyl)indan-1-one oxime]
- inhibition at 3 µM [1]: 68%

SMILES: CC1(C)C/C(=N\O)c2ccc(-c3ccc(Cl)c(Cl)c3)cc21 [Example 41, (1E)-5-(3,4-dichlorophenyl)-3,3-dimethylindan-1-one oxime]
- IC50 [1]: 456 nM

Results, then the compound that gave them:

- Estimated average EC50 [2]: 0.10 mg/kg
SMILES: C#C[C@]1(O)CC[C@H]2[C@@H]3CCC4=CC(=O)CC[C@@H]4[C@H]3C(=C)C[C@@]21CC [3-Ketodesogestrel]

- IC50 [1]: 32.6 nM
SMILES: Cn1c(C#N)ccc1-c1ccc2c(c1)CCC/C2=N\O [Example 15, 5-[(5E)-5-(hydroxyimino)-5,6,7,8-tetrahydronaphthalen-2-yl]-1-methyl-1H-pyrrole-2-carbonitrile]

- IC50 [1]: ~1000 nM
SMILES: N#Cc1ccc(-c2ccc3c(c2)CC/C3=N\O)cc1 [Example 7, 4-[(1E)-1-(hydroxyimino)-2,3-dihydro-1H-inden-5-yl]benzonitrile]

- Estimated average EC50 [2]: 0.10 mg/kg
SMILES: C#C[C@]1(O)CC[C@H]2[C@@H]3CCC4=CC(=O)CC[C@@H]4[C@H]3CC[C@@]21CC [Levonorgestrel]

- IC50 ([3]; half-maximal decrease in 0.1 trimegestone induced BrdU incorporation in T47D cells, individual Exp, read-out: EC50 (Estimated IC50)): 0.016 nM and 0.018 nM
- Estimated IC50 ([2]; p.o., half-maximal decrease in EC50 progesterone induced decidual response, individual Exp): 0.21 mg/kg and 0.14 mg/kg
SMILES: CC#C[C@]1(O)CC[C@H]2[C@@H]3CCC4=CC(=O)CCC4=C3[C@@H](c3ccc(N(C)C)cc3)C[C@@]21C [RU486]

- IC50 [1]: ~3000 nM
SMILES: N#Cc1cccc(-c2ccc3c(c2)CC/C3=N\O)c1 [Example 6, 3-[(1E)-1-(hydroxyimino)-2,3-dihydro-1H-inden-5-yl]benzonitrile]

- EC50 ([3]; half-maximal increase in BrdU incorporation in T47D cells, individual studies (Exp), read-out: Estimated EC50): 0.017 nM and 0.014 nM and 0.019 nM
SMILES: C[C@H](O)C(=O)[C@@]1(C)CC[C@H]2[C@@H]3CCC4=CC(=O)CCC4=C3CC[C@@]21C [Trimegestone]

Source: patent publication US7414142B2 (Wyeth, priority 2005, dated 2008)
